For assay [1], the system named is TrxR1. The assay can be described thus: Nrf2 target gene induction in MDA-MB-435 cells, qPCR: TrxR1. The assay is classed as cell-based, human. Particulars: 16 hours. The procedure: (§1) FIGS. 44, 46 and 47—Induction of HO-1, TrxR1 and γ-GCS. FIGS. 44A-C, 46A-C, 47A-C: MDA-MB-435 human melanoma cells were treated with vehicle (DMSO) or the indicated compounds (400 nM) for 16 hours. HO-1, thioredoxin reductase-1 (TrxR1), and γ-glutamylcysteine synthetase (γ-GCS) mRNA levels were quantified using qPCR and were normalized relative to a DMSO-treated sample run in parallel. Values are averages of duplicate wells. FIGS. 44D, 46D, 47D: MDA-MB-435 cells were treated with vehicle (DMSO) or the indicated compounds at 400 nM for 16 hours. HO-1, TrxR1 and actin protein levels were assayed by immunoblotting.
(§2) FIG. 45. Induction of HO-1, TrxR1 and γ-GCS. FIGS. 45 A-C: MDA-MB-435 cells were treated with vehicle (DMSO) or the indicated compounds at 160 nM for 16 hours. HO-1, TrxR1, and γ-GCS mRNA levels were quantified by qPCR and were normalized relative to a DMSO-treated sample run in parallel. Values are averages of duplicate wells. FIGS. 44D, 46D, 47D: MDA-MB-435 cells were treated with vehicle (DMSO) or the indicated compounds at 160 nM for 16 hours. HO-1, TrxR1 and actin protein levels were assayed by immunoblotting.
(§3) MDA-MB-435 human melanoma cells were treated with vehicle (DMSO) or the indicated compounds and concentrations for 16 hours. HO-1, thioredoxin reductase-1 (TrxR1), γ-glutamylcysteine synthetase (γ-GCS), and ferritin heavy chain mRNA levels were quantified using qPCR and were normalized relative to a DMSO-treated sample run in parallel. Values are averages of duplicate wells. Primer sequences are as follows.

Assay [2] has as its system IFNγ-induced NO production in RAW264.7 macrophages. The assay can be described thus: Suppression of IFNγ-induced NO production (Griess reagent). It is filed as cell-based, mouse. Particulars: Mus musculus, 2 h pre-treatment, then 20 ng/ml IFNγ for 24 hours. The procedure:
(§4) FIGS. 1-34. Inhibition of NO Production. RAW264.7 macrophages were pre-treated with DMSO or drugs at various concentrations (nM) for 2 hours, then treated with 20 ng/ml IFNγ for 24 hours. NO concentration in media was determined using the Griess reagent system; cell viability was determined using WST-1 reagent. FIGS. 49-52. Inhibition of NO Production. RAW264.7 macrophages were pre-treated with DMSO or drugs at various concentrations (nM) for 2 hours, then treated with 20 ng/ml IFNγ for 24 hours. NO concentration in media was determined using the Griess reagent system; cell viability was determined using WST-1 reagent. RAW264.7 macrophages were pre-treated with DMSO or drugs for 2 hours, then treated with recombinant mouse IFNγ (Sigma) for 24 hours. NO concentration in media was determined using the Griess reagent system (Promega). Cell viability was determined using WST-1 reagent (Roche).

The test system of assay [3] is iNOS. The assay can be described thus: Suppression of iNOS mRNA induction, qPCR. The assay is classed as cell-based, mouse. Particulars: RAW264.7; 2 h pre-treatment, 10 ng/ml IFNγ for 2 hours. The procedure:
FIG. 35. Suppression of iNOS mRNA induction. RAW264.7 mouse macrophages were pre-treated for 2 hours with compounds at the indicated concentrations and subsequently stimulated with 10 ng/ml IFNγ for an additional 2 hours. mRNA levels of iNOS were quantified by qPCR and are shown relative to the vehicle-treated IFNγ-stimulated sample which was normalized to a value of 1. Values are averages of duplicate PCR reactions, each with triplicate wells.
FIG. 36. Suppression of iNOS mRNA induction. RAW264.7 mouse macrophages were pre-treated for 2 hours with compounds at the indicated concentrations and subsequently stimulated with 10 ng/ml IFNγ for an additional 2 hours. mRNA levels of iNOS were quantified by qPCR and are shown relative to the vehicle-treated IFNγ-stimulated sample which was normalized to a value of 1. Values are averages of duplicate PCR reactions, each with triplicate wells.
FIG. 37. Suppression of iNOS mRNA induction. RAW264.7 mouse macrophages were pre-treated for 2 hours with compounds at the indicated concentrations and subsequently stimulated with 10 ng/ml IFNγ for an additional 2 hours. mRNA levels of iNOS were quantified by qPCR and are shown relative to the vehicle-treated IFNγ-stimulated sample which was normalized to a value of 1. Values are averages of duplicate PCR reactions, each with triplicate wells.
RAW264.7 mouse macrophage cells were pre-treated for 2 hours with compounds at the indicated concentrations and subsequently stimulated with 10 ng/ml IFNγ for an additional 2 hours. mRNA levels of iNOS were quantified by qPCR and are shown relative to the vehicle-treated IFNγ-stimulated sample which was normalized to a value of 1. Values are averages of duplicate PCR reactions, each with triplicate wells.

The test system of assay [4] is iNOS. The assay can be described thus: iNOS Western blot in RAW264.7 mouse macrophages. It is filed as cell-based. Conditions: compounds at 300 nM for 2 hours, 24 hour induction by IFNγ, read-out: iNOS suppr. WB. The procedure:
FIGS. 38-40. iNOS Western Blot in RAW264.7 mouse macrophages. Cells were pretreated by compounds at 300 nM for 2 hours, followed by 24 hour induction by IFNγ (20 ng/ml). […]

The subject of assay [5] is HO-1. Briefly: Nrf2 target gene induction in MDA-MB-435 cells, qPCR: HO-1. The assay is classed as cell-based, human. Conditions: 16 hours. As to the method:
FIG. 43. Induction of HO-1. FIGS. 43A and 43B: MDA-MB-435 human melanoma cells were treated with vehicle (DMSO) or the indicated compounds and concentrations for 16 hours. HO-1 mRNA levels were quantified using qPCR and were normalized relative to a DMSO-treated sample run in parallel. Values are averages of duplicate wells. FIG. 43C: MDA-MB-435 cells were treated with vehicle (DMSO) or the indicated compounds at 400 nM for 16 hours. HO-1, TrxR1 and actin protein levels were assayed by immunoblotting. Actin served as a loading control.
as §1, §2, §3

For assay [6], the system named is RAW264.7 macrophages. Briefly: Cell viability, WST-1 reagent. The assay is classed as cell-based, mouse. Particulars: Mus musculus, 2 h pre-treatment, then 20 ng/ml IFNγ for 24 hours. As to the method:
as §4

For assay [7], the system named is γ-GCS. The assay can be described thus: Nrf2 target gene induction in MDA-MB-435 cells, qPCR: γ-GCS. The assay is classed as cell-based, human. Particulars: 16 hours. As to the method:
as §1, §2, §3

Structures are written as SMILES.

In the case of `COC(=O)N[C@]12CCC(C)(C)C[C@H]1[C@H]1C(=O)C=C3[C@@]4(C)C=C(C#N)C(=O)C(C)(C)[C@@H]4CC[C@@]3(C)[C@]1(C)CC2` [Compound 63167, methyl-(4aS,6aR,6bS,8aR,12aS,14aR,14bS)-11-cyano-2,2,6a,6b,9,9,12a-heptamethyl-10,14-dioxo-1,2,3,4,4a,5,6,6a,6b,7,8,8a,9,10,12a,14,14a,14b-octadecahydropicen-4a-ylcarbamate], the TrxR1 induction in assay [1] (400 nM) is listed as 62% of induction observed for RTA 402. Moreover, the IC50 in assay [2] stood at 2 nM; in assay [6] it was 180 nM. Also, the “iNOS suppr. qPCR” value in assay [3] is recorded as roughly 50%. In addition, in assay [4], the inhibition at 0.3 µM is roughly 90%. Further, the HO-1 induction in assay [5] (400 nM) is given as 61% of induction observed for RTA 402.

For `CC1(C)CC[C@]2(N)CC[C@]3(C)[C@H](C(=O)C=C4[C@@]5(C)C=C(C#N)C(=O)C(C)(C)[C@@H]5CC[C@]43C)[C@@H]2C1` [Compound 63169, (4aR,6aS,6bR,8aS,12aS,12bR,14bS)-8a-amino-4,4,6a,6b,11,11,14b-heptamethyl-3,13-dioxo-3,4,4a,5,6,6a,6b,7,8,8a,9,10,11,12,12a,12b,13,14b-octadecahydropicene-2-carbonitrile], the γ-GCS induction in assay [7] (160 nM) is 73% of induction observed for RTA 402. Also, in assay [1] (160 nM), the TrxR1 induction is reported as 129% of induction observed for RTA 402. Besides, the IC50 was 3.6 nM in assay [2] and greater than 200 nM in assay [6]. The “iNOS suppr. qPCR” value in assay [3] was roughly 50%. In addition, in assay [4], the inhibition at 0.3 µM was roughly 90%. Further, in assay [5] (160 nM), the HO-1 induction is 2% of induction observed for RTA 402.

For `CC1(C)CC[C@]2(NS(C)(=O)=O)CC[C@]3(C)[C@H](C(=O)C=C4[C@@]5(C)C=C(C#N)C(=O)C(C)(C)[C@@H]5CC[C@]43C)[C@@H]2C1` [Compound 63175, N-((4aS,6aR,6bS,8aR,12aS,14aR,14bS)-11-cyano-2,2,6a,6b,9,9,12a-heptamethyl-10,14-dioxo-1,2,3,4,4a,5,6,6a,6b,7,8,8a,9,10,12a,14,14a,14b-octadecahydropicen-4a-yl)methanesulfonamide], in assay [7] (160 nM), the γ-GCS induction is given as 64% of induction observed for RTA 402. Further, the figures for the TrxR1 induction in assay [1] (160 nM) and in assay [1] (400 nM) were 86% of induction observed for RTA 402 and 48% of induction observed for RTA 402, respectively. The IC50 was found to be 2 nM in assay [2] and 200 nM in assay [6]. The “iNOS suppr. qPCR” value in assay [3] is roughly 65%. In addition, the inhibition at 0.3 µM in assay [4] was roughly 90%. The HO-1 induction is reported as 15% of induction observed for RTA 402 in assay [5] (160 nM) and 10% of induction observed for RTA 402 in assay [5] (400 nM).

Regarding `C=CC(=O)N[C@]12CCC(C)(C)C[C@H]1[C@H]1C(=O)C=C3[C@@]4(C)C=C(C#N)C(=O)C(C)(C)[C@@H]4CC[C@@]3(C)[C@]1(C)CC2` [Compound 63183, N-((4aS,6aR,6bS,8aR,12aS,14aR,14bS)-11-cyano-2,2,6a,6b,9,9,12a-heptamethyl-10,14-dioxo-1,2,3,4,4a,5,6,6a,6b,7,8,8a,9,10,12a,14,14a,14b-octadecahydropicen-4a-yl)acrylamide], the γ-GCS induction in assay [7] (160 nM) is given as 55% of induction observed for RTA 402. Besides, in assay [1] (160 nM), the TrxR1 induction is reported as 71% of induction observed for RTA 402. Moreover, the IC50 in assay [2] was determined as 4 nM; in assay [6] it was 150 nM. The “iNOS suppr. qPCR” value in assay [3] is on record as 50%. The inhibition at 0.3 µM in assay [4] is roughly 90%. Also, the HO-1 induction in assay [5] (160 nM) is 28% of induction observed for RTA 402.

Take `CC1(C)CC[C@]2(NC(=O)N3CCC(O)CC3)CC[C@]3(C)[C@H](C(=O)C=C4[C@@]5(C)C=C(C#N)C(=O)C(C)(C)[C@@H]5CC[C@]43C)[C@@H]2C1` [Compound 63185, N-((4aS,6aR,6bS,8aR,12aS,14aR,14bS)-11-cyano-2,2,6a,6b,9,9,12a-heptamethyl-10,14-dioxo-1,2,3,4,4a,5,6,6a,6b,7,8,8a,9,10,12a,14,14a,14b-octadecahydropicen-4a-yl)-4-hydroxypiperidine-1-carboxamide]: the γ-GCS induction in assay [7] (160 nM) is listed as 27% of induction observed for RTA 402. Moreover, in assay [1] (160 nM), the TrxR1 induction is listed as 71% of induction observed for RTA 402. In addition, the values for the IC50 in assay [2] and in assay [6] were 91 nM and greater than 200 nM, respectively. Also, in assay [3], the “iNOS suppr. qPCR” value amounted to 0%. For the same compound, the inhibition at 0.3 µM in assay [4] came to 0%. Besides, the HO-1 induction in assay [5] (160 nM) is 1% of induction observed for RTA 402.

Turning to `CC1(C)CC[C@]2(NS(=O)(=O)c3ccccc3)CC[C@]3(C)[C@H](C(=O)C=C4[C@@]5(C)C=C(C#N)C(=O)C(C)(C)[C@@H]5CC[C@]43C)[C@@H]2C1` [Compound 63192, N-((4aS,6aR,6bS,8aR,12aS,14aR,14bS)-11-cyano-2,2,6a,6b,9,9,12a-heptamethyl-10,14-dioxo-1,2,3,4,4a,5,6,6a,6b,7,8,8a,9,10,12a,14,14a,14b-octadecahydropicen-4a-yl)benzenesulfonamide], in assay [7] (160 nM), the γ-GCS induction is reported as 9% of induction observed for RTA 402. In addition, the TrxR1 induction in assay [1] (160 nM) was 14% of induction observed for RTA 402. Besides, the IC50 in assay [2] stood at 2.8 nM; in assay [6], 150 nM. The “iNOS suppr. qPCR” value in assay [3] is listed as roughly 60%. In assay [4], the inhibition at 0.3 µM was greater than 90%. The HO-1 induction in assay [5] (160 nM) is listed as 1% of induction observed for RTA 402.

For `CC1(C)CC[C@]2(NS(=O)(=O)CC(F)(F)F)CC[C@]3(C)[C@H](C(=O)C=C4[C@@]5(C)C=C(C#N)C(=O)C(C)(C)[C@@H]5CC[C@]43C)[C@@H]2C1` [Compound 63247, N-((4aS,6aR,6bS,8aR,12aS,14aR,14bS)-11-cyano-2,2,6a,6b,9,9,12a-heptamethyl-10,14-dioxo-1,2,3,4,4a,5,6,6a,6b,7,8,8a,9,10,12a,14,14a,14b-octadecahydropicen-4a-yl)-2,2,2-trifluoroethanesulfonamide], the γ-GCS induction in assay [7] (400 nM) is 75% of induction observed for RTA 402. For the same compound, in assay [1] (400 nM), the TrxR1 induction is listed as 76% of induction observed for RTA 402. Moreover, the IC50 in assay [2] was roughly 2 nM; in assay [6], 150 nM. For the same compound, in assay [4], the inhibition at 0.3 µM is greater than 90%. For the same compound, the HO-1 induction in assay [5] (400 nM) is listed as 19% of induction observed for RTA 402.

The values above are taken from US9670147B2, “Antioxidant inflammation modulators: oleanolic acid derivatives with amino and other modifications at C-17” (REATA PHARMACEUTICALS, INC., priority 2008, dated 2017).
